Experiment [1] deals with T1, Bacillus subtilis para-nitrobenzyl esterase variant 4-43E7 (3-10C4 substitutions + L334V and one further substitution), SEQ. ID. NO. 12 (Bacillus subtilis, UniProt P37967, H322R/L144M/L334V/M358V/S94G/Y370F).
T1 sequence (P37967 1-489 K23L/S59P/S94G/K95Q/L144M/N150D/S230A/G242S/K246R/S251A/A291S/H322R/L334V/V343A/M358V/Y370F/K390E/L463V): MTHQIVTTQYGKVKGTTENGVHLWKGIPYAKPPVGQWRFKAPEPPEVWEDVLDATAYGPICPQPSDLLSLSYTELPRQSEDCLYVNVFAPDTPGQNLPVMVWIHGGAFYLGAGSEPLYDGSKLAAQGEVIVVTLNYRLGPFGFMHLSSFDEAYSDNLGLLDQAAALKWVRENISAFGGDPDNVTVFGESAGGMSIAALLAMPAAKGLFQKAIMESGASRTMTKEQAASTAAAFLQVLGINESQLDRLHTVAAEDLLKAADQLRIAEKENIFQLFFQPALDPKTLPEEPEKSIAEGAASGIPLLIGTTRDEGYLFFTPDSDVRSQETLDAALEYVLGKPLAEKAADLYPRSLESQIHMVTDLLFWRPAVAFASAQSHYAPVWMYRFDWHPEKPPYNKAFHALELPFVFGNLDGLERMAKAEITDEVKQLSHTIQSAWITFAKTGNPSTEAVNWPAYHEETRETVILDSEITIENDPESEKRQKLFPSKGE
As to the kind of experiment: Kinetic assays of purified pNB esterase (ester hydrolysis). The class given is biochemical. Also on record: unit not given beside the values. The conditions noted are these: 0.1M PIPES pH 7.0, 30° C. As to the method: (§1) Bacteria expressing seven pNB esterases, 0-WT (SEQ. ID. NO. 2), 1-1H9, 2-19E10, 3-10C4, 4-38B9, 4-43E7, and 4-54B9, were grown in one liter cultures and the enzymes were purified. These purified enzymes were assayed for their ability to hydrolyze the different ester substrates in the presence of various concentrations of DMF. FIGS. 8a, b and c show the specific reaction rates on pNPA as a function of pNPA substrate concentration for this series of evolved variants from the four generations of mutagenesis and screening. […] The wild type enzyme outperforms 1-1H9 in purely aqueous buffer (FIG. 8a). The actual screening, however, was performed in the presence of DMF, and in 15 and 30% DMF, 1-1H9 has higher specific activity towards pNPA than wild type (FIGS. 8b and 8c). Similar trends are seen for the remaining variants assayed on this substrate. […] In 30% DMF, wild type drops still further relative to the pNB esterase variants. Variants 4-38B9 and 4-43E7, presumably by, virtue of having been screened in DMF for four rounds of mutagenesis, are the best performers in 30% DMF.
(§2) DMF dramatically increases KM while also decreasing kcat. For the LCN substrates, the mutations accumulated during directed evolution mitigate the increased KM. The effects on kcat, however, are more prominent: kcat increases more than 9-fold from wild type to 4-54B9 in 15% DMF, while KM decreases by less than a factor of two on LCN-pNB. […] At substrate concentrations […], increased specific activity will result mainly from improvements in kcat. These improvements are obviously the most useful for enzymes intended to be used for transformations in high substrate concentrations.
(§3) Kinetic assays were performed on three substrates: pNPA, LCN-pNP, and p-nitrobenzyl loracarbef nucleus (LCN-pNB). For pNPA and LCN-pNP substrates, final concentrations varying from 0.0625 mM to 16 mM and 0, 15, and 30% DMF in 0.1M PIPES (Sigma), pH 7.0 were combined with equal volumes of enzyme samples. These samples were mixed simultaneously in a 96 well plate and monitored with the 96 well plate reader. The absorbance values were recorded, linearly regressed, and then used for calculating kinetic parameters. For the LCN-pNB substrate, final concentrations varying from 0.0156 mM to 8.0 mM and 0, 15 and 30% DMF in PIPES, pH 7.0 were combined with enzyme samples in a quartz cuvette and were measured in a spectrophotometer at 289 nm. All assays were measured in triplicate.

Experiment [2] has as its target T2, Bacillus subtilis para-nitrobenzyl esterase (pNB esterase), wild type 0-WT, SEQ. ID. NO. 2 (Bacillus subtilis, UniProt P37967).
T2 sequence (P37967 1-489 K23L/S59P/K95Q/N150D/S230A/G242S/K246R/S251A/A291S/V343A/K390E/L463V): T1 sequence (P37967 1-489 K23L/S59P/S94G/K95Q/L144M/N150D/S230A/G242S/K246R/S251A/A291S/H322R/L334V/V343A/M358V/Y370F/K390E/L463V) with G94S, M144L, R322H, V334L, V358M, F370Y
The description is as above. The class given is biochemical. Also on record: unit not given beside the values. The note with it: 0.1M PIPES pH 7.0, 30° C. Here is the method:
as §1, §2, §3

Setting [3] is: substrate p-nitrophenyl loracarbef nucleus, 0% DMF.
Where [4] appears, read: substrate p-nitrophenyl loracarbef nucleus, 15% DMF.
The mark [5] stands for this setting: substrate p-nitrophenyl loracarbef nucleus, 30% DMF.
[6] abbreviates: substrate p-nitrobenzyl loracarbef nucleus, 0% DMF.
[7] abbreviates: substrate p-nitrobenzyl loracarbef nucleus, 15% DMF.

Molecules are shown by their SMILES. Positions count from the first letter of the chain named.

For the compound `NC1C(=O)N2C(C(=O)Oc3ccc([N+](=O)[O-])cc3)=C(Cl)CCC12` (stereo not shown) [p-nitrophenyl loracarbef nucleus], the kcat in experiment [1] (setting [3]) came out at 0.67; in experiment [1] (setting [4]), 0.40; in experiment [1] (setting [5]), 0.094; in experiment [2] (setting [3]) it was 0.14; in experiment [2] (setting [4]), 0.10; in experiment [2] (setting [5]), 0.024.
For the compound `NC1C(=O)N2C(C(=O)OCc3ccc([N+](=O)[O-])cc3)=C(Cl)CCC12` (stereo not shown) [p-nitrobenzyl loracarbef nucleus], the kcat in experiment [1] (setting [6]) amounted to 9.13; in experiment [1] (setting [7]) it was 3.02; in experiment [2] (setting [6]) it was 1.64; in experiment [2] (setting [7]), 0.54.

The values above are taken from patent US5906930A, “Para-nitrobenzyl esterases with enhanced activity in aqueous and nonaqueous media” (California Institute of Technology, priority 1998, dated 1999).
